The nature of series [1]: Accelerated chemical stability (reverse phase HPLC). The conditions noted are these: same accelerated stability conditions.
A short description of series [2]: Hygroscopicity (moisture microbalance). The format is physicochemical. The conditions noted are these: 10% to 90% humidity, 25°C. The procedure:
A temperature of 25°C is maintained during all hygroscopicity measurements.

In series [3] the test system is healthy male human subjects. Kind of series: Side effects by visual analogue scales and emesis (Example 2). The format is in vivo.
Series [4] deals with healthy male human subjects. Kind of series: Side effects by visual analogue scales and emesis (Example 1). It counts as in vivo.
The nature of series [5]: Plasma pharmacokinetics, bolus versus 15 hr divided dosing (Example 1). The conditions noted are these: human. It counts as in vivo.
Series [6] can be described thus: Plasma pharmacokinetics, bolus versus 7 hr divided dosing (Example 2). It counts as in vivo. The conditions noted are these: human, fasted, mean; for AUC(0-t): po, 200 mg.
The nature of series [7]: Pharmacokinetics of sertraline delivered to various portions of the gastrointestinal tract (Example 3). The format is in vivo. The conditions noted are these: for AUC(0-t): human, plasma; for AUC(0-t) / AUC as percent of the AUC observed after dosing with oral tablets: 200 mg.
Series [8] deals with healthy male human subjects. Kind of series: Side effect score versus plasma concentration, PK/PD (Example 6). The format is in vivo.
Series [9] can be described thus: Mechanical properties of compacts of the pure drug substance. The format is physicochemical. The procedure: The measurements of mechanical properties can be routinely accomplished using square compacts of the pure drug substance, in this case sertraline acetate and sertraline L-lactate. The measurements are made in triplicate and the compacts are prepared by uniaxial compression and triaxial decompression.
Samples for the testing of mechanical properties are prepared according to standard procedures. To generate reliable data, such samples must be free of mechanical flaws, such as microcracks. Therefore, a specialized tablet press, prepared as described in U.S. Patent No. 4,880,373, is utilized. […] The apparent density of the compact is determined by measuring the […]. […] The true density of the powder is determined by helium pycnometry. Ordinarily, to achieve the desired solid fraction, trial compactions of carefully weighed powder samples must be performed and the solid fraction of the resultant compact is measured. […]
Dynamic indentation hardness, H0, of the compacts is measured with a pendulum impact apparatus , prepared as described in U.S. Patent No. 4,885,933. […] The time required for the pendulum to pass between two photocells of given distance apart is measured and the pendulum rebound height, hr is automatically calculated. […]

[10] abbreviates: 200 mg bolus dose group, individual subjects.
[11] abbreviates: GROUP B (8 Divided Doses) 25 mg hourly.
[12] abbreviates: GROUP A (Bolus Dose) 200 mg, summed over 24 hr post-dose.
The mark [13] stands for this setting: GROUP B (16 Divided Doses) 12.5 mg hourly, summed over 24 hr post-dose.
Setting [14] is: 200 mg single dose (Group A), two 100 mg immediate release tablets (ZOLOFT), oral, fasted, mean.
Where [15] appears, read: 200 mg single dose, two 100 mg immediate release tablets (ZOLOFT), oral, four subjects with emesis not included.
[16] abbreviates: GROUP A, Ileocecal Infusion, 200 mg as 2 mg/ml solution.
[17] abbreviates: GROUP A, Stomach Infusion, 200 mg as 2 mg/ml solution.
The mark [18] stands for this setting: GROUP B, Colonic Infusion (transverse colon), 200 mg as 2 mg/ml solution.
[19] abbreviates: GROUP B, Duodenal Infusion, 200 mg as 2 mg/ml solution.

“And” between values parts separate entries of the source, which are not always exact repeats. Equal entries are not always repeated.

For `CN[C@H]1CC[C@@H](c2ccc(Cl)c(Cl)c2)c2ccccc21.N[C@@H](CC(=O)O)C(=O)O` [sertraline L-aspartate], the “purity of samples after stability testing” value in [1] is given as “greater than 99%”. The hygroscopicity result in series [2] is “not hygroscopic”.

Regarding `CN[C@H]1CC[C@@H](c2ccc(Cl)c(Cl)c2)c2ccccc21` [sertraline, (1S-cis)-4-(3,4-dichlorophenyl)-1,2,3,4-tetrahydro-N-methyl-1-naphthalenamine], the time of emesis in [3] (setting [10]) is 2.6 hr and 2.8 hr (2×) and 3.8 hr; in [3] (7 hr divided dose regimen, one subject), 12.6 h; in series [4] (setting [10]) it was 4.25 h and 11.2 h and 7.6 h; in series [8] (Study II, 200 mg dose group, individual subjects), 2.6 hr and 2.8 hr (2×) and 3.8 hr. For the same compound, in series [3] (7 hr divided dose group, 8 x 25 mg (n=16)), the emetic events was determined as 1. For the same compound, the “Mean cumulative score: Dizziness” value came out at 10.4 in series [3] (GROUP A (Bolus Dose) 200 mg) and 4.8 in series [3] (setting [11]). Moreover, the “Mean cumulative score: Regurgitation” value in [3] (GROUP A (Bolus Dose) 200 mg) is on record as 3.9; in [3] (setting [11]) it was 0.1; in series [4] (setting [12]), 4.0; in [4] (setting [13]) it was 0.3. Further, the “Mean cumulative score: Tremor” value came to 8.9 in series [3] (GROUP A (Bolus Dose) 200 mg), 2.7 in series [3] (setting [11]), 7.9 in series [4] (setting [12]) and 1.7 in series [4] (setting [13]). For the same compound, the subjects with emesis result in series [4] (200 mg bolus dose group (15 subjects)) is “Three”. The emetic episodes entry in series [4] (15 hr divided dose regimen (16 x 12.5 mg)) was “no emetic episodes”. The “Mean cumulative score: Abdominal Cramping” value came to 3.1 in series [4] (setting [12]) and 0.1 in series [4] (setting [13]). In addition, the results for the “Mean cumulative score: Diarrhea” value in [4] (setting [12]) and in series [4] (setting [13]) were 3.9 and 0.2, respectively. For the same compound, the “Mean cumulative score: Nausea” value is on record as 17.5 in series [4] (setting [12]) and 2.6 in [4] (setting [13]). In addition, the “Mean cumulative score: Urgency to Defecate” value in series [4] (setting [12]) is reported as 3.1. Further, the “Mean cumulative score: Abdominal Pain” value turned out to be 2.7 in series [4] (GROUP A (Bolus Dose) 200 mg, visual analogue scores summed over 24 hr post-dose) and 0.1 in series [4] (setting [13]). The area under the curve AUC(0-t) (in general, the area under the concentration-time curve up to a stated or last time point) turned out to be 1650 ng·h/mL in series [5] (setting [14]); 1230 ng·h/mL in series [5] (po); 1440 ng·h/mL in series [6] (25 mg per hr for 7 hr, eight 25 mg doses as solution); 1740 ng·h/mL in series [6] (200 mg single dose, two 100 mg immediate release tablets (ZOLOFT), four subjects with emesis not included); 727 ng·h/mL in [7] (setting [16]); 923 ng·h/mL in series [7] (setting [17]). Moreover, the AUC(0-t) in series [7] (setting [18]) stood at 179 ng·h/mL; in [7] (setting [19]), 1270 ng·h/mL; in series [7] (po, GROUP A, Oral Tablet, 200 mg as two 100 mg tablets) it was 1170 ng·h/mL; in [7] (po, GROUP B, Oral Tablet, 200 mg as two 100 mg tablets), 1150 ng·h/mL. Further, the CMAX came to 74 ng/mL in [5] (setting [14]); 75 ng/mL in series [6] (setting [15]); 27.3 ng/mL in series [7] (setting [16]); 39.9 ng/mL in series [7] (GROUP A, Oral Tablet, 200 mg as two 100 mg tablets, 6 volunteers); 35.6 ng/mL in series [7] (setting [17]); 10.9 ng/mL in series [7] (setting [18]). Further, the CMAX worked out at 48.8 ng/mL in [7] (setting [19]) and 44.7 ng/mL in series [7] (GROUP B, Oral Tablet, 200 mg as two 100 mg tablets, 6 volunteers). For the same compound, the TMAX in series [5] (setting [14]) came out at 6 h; in [6] (setting [15]), 5.4 h; in series [7] (setting [16]), 5.0 h; in [7] (GROUP A, Oral Tablet, 200 mg as two 100 mg tablets), 7.0 h; in series [7] (setting [17]) it was 7.0 h; in series [7] (setting [18]), 4.4 h. In addition, the TMAX in series [7] (setting [19]) amounted to 3.7 h; in series [7] (GROUP B, Oral Tablet, 200 mg as two 100 mg tablets), 6.7 h. Moreover, the “AUC as percent of the AUC observed after dosing with oral tablets” value worked out at 110% in [7] (infusion into the duodenal region), 62% in series [7] (infusion into the ileocecal region of the small intestine), 79% in series [7] (infusion into the stomach) and 16% in [7] (infusion into the transverse colon). The “time at which the maximum diarrhea score was reached” value in [8] (Study 1, 200 mg bolus dose, post-dose) is 3 h.

With sertraline acetate, in series [1], the “purity of samples after stability testing” value is “greater than 99%”. Besides, the hygroscopicity entry in series [2] is “not hygroscopic”. Besides, in series [9], the “ductility (assessment in words)” value is on record as “high ductility” and the “elastic modulus (assessment in words)” value is “relatively low elastic modulus”.

(Values after patent EP1736150A2 (Pfizer, Inc., priority 1997, dated 1999).)
